Columns and labels:
[1] = tested on: CCRF-CEM; test: Effect on cross resistance of CCRF-CEM cells resistant to vincristine expressed as log of ratio of molar concentration of compound inducing 50% growth inhibition in resistant to sensitive cells; format: functional, Homo sapiens
[2] = physchem; conditions: octanol/water, pH 7.4
[3] = tested on: CCRF-CEM; test: Effect on cross resistance of CCRF-CEM cells resistant to vincristine expressed as as log of ratio of molar concentration of compound inducing 50% growth inhibition in resistant to sensitive cells; format: functional, Homo sapiens

SMILES	Log CR [1]	logD [2]	Log CR [3]
COc1cc([C@@H]2c3cc4c(cc3[C@H](O)[C@H]3COC(=O)[C@H]23)OCO4)cc(OC)c1OC [PODOFILOX]	0.07	2.01	–
COc1cc([C@@H]2c3cc4c(cc3[C@@H](O[C@@H]3O[C@@H]5CO[C@@H](c6cccs6)O[C@H]5[C@H](O)[C@H]3O)[C@H]3COC(=O)[C@H]23)OCO4)cc(OC)c1O [TENIPOSIDE]	–	1.22	1.56

Reference: ChEMBL document CHEMBL1124835, “Structure-activity relationships of antineoplastic agents in multidrug resistance” (J Med Chem, 1990)
